{"source": "patent US9642821B2", "about": "“MiR-182 in the diagnosis and treatment of cancer” (Dana-Farber Cancer Institute, Inc., priority 2010, dated 2017)", "type_in_all_cases": "cell-based", "key": {"[1]": {"tested_on": "BRCA1 3′UTR-luciferase reporter", "assay": "Luciferase reporter assay with BRCA1 3′UTR in HeLa cells", "procedure": "The wild type (WT) and mutated (M) miR-182 recognition elements of 3′UTR-BRCA1 were annealed (see below) and cloned in expression vector, pMIR-REPORT (Ambion, Austin, Tex.) downstream to Firefly Luciferase.\nHela cells were co-transfected in a 24 well tissue culture plate with 10 nM control mimic (Ambion, Austin, Tex.) or miR-182 mimic (Ambion, Austin, Tex.), 0.2 μg 3′UTR-BRCA1-WT or 3′UTR-BRCA1-M, and 0.2 μg Renilla luciferase in pRL-TK (Promega, Madison, Wis.) vector using lipofectamine 2000 as described in manufacture's manual. Cells were harvested on day 2 and the luciferase activity was assayed with the Dual-Luciferase Assay System (Promega, Madison, Wis.) and a Synergy HT microplate reader (BioTek, Winooski, Vt.) as described in manufacture's manual."}, "[2]": {"tested_on": "MDA-MB231 cells", "assay": "Clonogenic cell survival assay with PARP inhibitors, MDA-MB231", "details": "MDA-MB231, 14 days, vs control mimic", "procedure": "(§1) Hela cells (0.35×10^6 cells/well), MDA-MB231 cells (0.4×10^6 cells/well), 21NT cells (0.5×10^6) were seeded overnight and transfected with 10 nM of miRNA mimics or antagomirs (Ambion, Austin, Tex.) using Lipofectamine 2000. In rescue experiments, miR-182 or control mimics were co-transfected with 1 μg/ml BRCA1 (pcDNA3.1 vector). After 2 days, 1000 cells in 4 ml DMEM media (10% FBS v/v) were seeded on 6 cm tissue culture dishes in four replicates and allowed to attach overnight before treatment. PARP inhibitors (4-amino-1,8-naphthalimide (Sigma, St. Louis, Mo.) or ABT-888 (ChemieTek, Indianapolis, Ind.) in DMSO) were added to the growth media at indicated concentrations. Irradiated cells as well as cells in the presence of PARP inhibitor were allowed to form colonies for 14 days. For evaluation, formed colonies were stained with crystal violet and surviving colonies containing >50 cells were counted. Plating efficiency was 30-50%."}, "[3]": {"tested_on": "U2OS cells", "assay": "G2/M checkpoint, phospho-H3 flow cytometry after IR", "details": "5 Gy IR, nocodazole, P-H3 staining", "procedure": "U2OS cells (0.35×10^6 cells/well) were transfected with 10 nM control mimic or miR-182 mimic and, in rescue experiments, co-transfected with 1 μg of BRCA1 (lacking 3′UTR) expression construct using Lipofectamine 2000. After 2 days, cells were seeded into the wells of 12-well tissue culture plates, incubated overnight, irradiated (5 Gy) and released in nocadozole (200 ng/ml) containing media after 2 hours. The next day the cells were stained with primary Phospho-H3 (Ser10) antibodies 1:100 dilution (Upstate Biotechnology, Lake Placid, N.Y.) and FITC-labeled secondary antibodies 1:50 dilution (Santa Cruz Biotechnology, Santa Cruz, Calif.) and analyzed by flow cytometry."}, "[4]": {"tested_on": "MDA-MB231 cells", "assay": "Clonogenic cell survival assay after γ-radiation, MDA-MB231", "details": "MDA-MB231, vs control mimic", "procedure": "as §1"}, "[5]": {"tested_on": "BRCA1", "assay": "BRCA1 immunoblot in MDA-MB231 cells", "details": "MDA-MB231 cells overexpressing miR-182 vs miR-scr", "procedure": "(§2) In each experiment, where Western blot analysis was done, a fraction of 0.2−0.5×10^6 cells was taken out at day, 3 or 4, post-transfection. Breast cancer cell lines were collected from 6 well tissue culture plates (0.5-1×10^6 cells). Cells lysates were prepared in RIPA buffer (150 mM NaCl, 1% NP-40, 0.5% sodium deoxycholate, 0.1% SDS, 50 mM Tris, pH 8.0). Lysates of 0.1×10^6 cells of each sample plus loading buffer were loaded on 8% SDS-PAGE gels, semi-dry transferred on nitrocellulose membrane, and probed with anti-BRCA1 antibody at a 1:500 dilution (CALBIOCHEM, MS110) and anti-tubulin antibody at a 1:10,000 dilution (Sigma, Clone B-5-1-2)."}, "[6]": {"tested_on": "MDA-MB231 cells", "assay": "Single-cell gel electrophoresis (comet) assay after irradiation, MDA-MB231", "details": "MDA-MB231, 18 h repair, vs control mimic", "procedure": "21NT cells (0.35×10^6 cells/well in 6 well tissue culture plate) were transfected with 100 nM control or miR-182 antagomir expression vector (Ambion, Austin, Tex.) whereas MDA-MB231 (0.35×10^6 cells/well on 6 well plate) were transfected with 10 nM control or miR-182 mimic expression vector (Ambion, Austin, Tex.) using Lipofectamine 2000. At day 3 after transfection, cells were irradiated (0, 2, 4 and 6 Gy) and allowed to recover for 18 hours prior to analysis. The single cell comet assays was carried out according manufacturer's instructions (Trevigen, Gaithersburg, Md.). Briefly, treated or untreated cells were collected, resuspended in ice cold PBS at 10^5 cells/ml, mixed with low-melting point agarose (1:10 ratio) and spread on frosted glass slides. After the agarose solidified, the slides were placed in lysis buffer and then in alkaline solutions. […] Nuclei were visualized using epifluorescent illumination on a Zeiss microscope and images analyzed with National Institutes of Health ImageJ software (rsbweb.nih.gov/ij/). DNA damage was quantified for 70-100 cells for each experimental condition by determining the DNA in the comet tail using the software Comet Score (TriTek, Sumerduck, Va.)."}, "[7]": {"tested_on": "BRCA1", "assay": "BRCA1 expression after ectopic miRNA overexpression in HL60 cells (immunoblot, qPCR)", "procedure": "Analysis of the miRNAs of the miR-183 cluster was conducted using qPCR using the TaqMan MicroRNA Assay from Applied Biosystems as per the manufacturer's instructions and normalized to RNU6B snRNA. Analysis of mRNA expression was carried out with qPCR using the SYBR Green master mix (Applied Biosystems, Foster City, Calif.) according to the manufacture's manual and the BioRad iCycler. The mRNA (1 μg) was reverse transcribed with 50 ng random primers using 100 U moloney murine leukemia virus (MMLV) reverse transcriptase (Epicentre, Madison, Wis.) according to the manufacturer's manual. Results were normalized to 5SrRNA or GAPDH.\nas §2"}}, "note": "Entries after “also recorded” stand apart in the source; their conditions may differ."}
{"substance": "miR-182: microRNA with sequence 5′ UUUGGCAAUGGUAGAACUCACACU 3′ (SEQ ID NO:1); given as mimic (Ambion) or expression vector (UUUGGCAAUGGUAGAACUCACACU; listed as RNA, chemistry not given here; listed as Homo sapiens)", "values": [{"measurement": "effect of miR-182 on luciferase with mutated miR-182 recognition sites (BRCA1-M reporter)", "setting": "[1]", "result": "significantly reduced the effect; also recorded: rescued this suppression"}, {"measurement": "reduction of luciferase activity, wildtype BRCA1-reporter", "setting": "[1]; 10 nM mimic, vs control mimic", "result": "more than 2 fold"}, {"measurement": "luciferase activity of BRCA1-WT reporter", "setting": "[1]; normalized to Renilla, p<0.001", "result": "suppressed luciferase activity"}, {"measurement": "sensitivity to PARP1 inhibitor ABT-888 (clonogenic survival)", "setting": "[2]", "result": "sensitize MDA-MB231 cells to PARP1 inhibition"}, {"measurement": "sensitivity to PARP1 inhibitor ANI (clonogenic survival)", "setting": "[2]", "result": "sensitize MDA-MB231 cells to PARP1 inhibition"}, {"measurement": "sensitivity to PARP1 inhibitor ABT-888 (clonogenic survival)", "setting": "[2]; listed as 182 mimic", "result": "impacts sensitivity to PARP1 inhibitor ABT-888"}, {"measurement": "sensitivity to PARP1 inhibitor ANI (clonogenic survival)", "setting": "[2]; listed as miR-182 mimic", "result": "significantly enhanced sensitivity to ANI"}, {"measurement": "mitotic cells post-DNA damage (G2/M checkpoint)", "setting": "[3]", "result": "significant increase in mitotic cells; also recorded: impacts the G2/M checkpoint"}, {"measurement": "sensitivity to IR (clonogenic survival)", "setting": "[4]", "result": "significantly more sensitive"}, {"measurement": "sensitivity to IR (clonogenic survival)", "setting": "[4]; listed as miR-182 mimic", "result": "significantly enhanced sensitivity to IR"}, {"measurement": "BRCA1 protein level", "setting": "[5]", "result": "sharply reduced; also recorded: lower levels; also recorded: diminish BRCA1 levels; also recorded: down regulates BRCA1 protein levels"}, {"measurement": "residual DNA damage (unrepaired DSBs) after irradiation", "setting": "[6]", "result": "significantly higher residual DNA damage"}, {"measurement": "residual DNA damage (unrepaired DSBs) after irradiation", "setting": "[6]; listed as 182 mimic", "result": "significantly altered"}, {"measurement": "BRCA1 protein level", "setting": "[7]; HL60 cells transiently transfected with expression vectors, Western blot", "result": "significant decrease"}, {"measurement": "BRCA1 mRNA level", "setting": "[7]; ectopic overexpression, data not shown", "result": "moderate decrease"}]}
